From PubChem BioAssay AID248 (DTP/NCI, 2004)
Toxic doses and inconclusive results are not listed.

Test system: L1210 leukemia ip in BDF1 mice, survival T/C
Assay: NCI In Vivo Anticancer Drug Screen. Data for tumor model L1210 Leukemia (intraperitoneal) in B6D2F1 (BDF1) mice
Conditions: endpoint: mean survival time, higher = longer survival
Outline: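 Antitumor effect is assessed in tumor-bearing animals. Survival in the compound arm is compared with a vehicle-dosed control arm and expressed as their quotient.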

[1] = dose: 100.0 mg/kg/injection, schedule: Q04DX003 (ip), vehicle: saline with Tween-80
[2] = dose: 100.0 mg/kg/injection, schedule: Q01DX009 (ip), vehicle: Klucel (hydroxypropylcellulose) (HPC)
[3] = dose: 200.0 mg/kg/injection, schedule: Q01DX009 (ip), vehicle: Klucel (hydroxypropylcellulose) (HPC)
[4] = dose: 400.0 mg/kg/injection, schedule: Q01DX009 (ip), vehicle: Klucel (hydroxypropylcellulose) (HPC)
[5] = dose: 100.0 mg/kg/injection, schedule: Q01DX001 (ip), vehicle: carboxymethylcellulose (CMC)
[6] = dose: 200.0 mg/kg/injection, schedule: Q01DX001 (ip), vehicle: carboxymethylcellulose (CMC)

For `CCOC(=O)Cc1c(C(=O)OCC)[nH]c(C)c1C(C)=O`, the T/C (dose: 100.0 mg/kg/injection, schedule: Q01DX001 (ip), vehicle: Klucel (hydroxypropylcellulose) (HPC)) was 104 % of control, the T/C (dose: 200.0 mg/kg/injection, schedule: Q01DX001 (ip), vehicle: Klucel (hydroxypropylcellulose) (HPC)) was 95 % of control and the T/C (dose: 400.0 mg/kg/injection, schedule: Q01DX001 (ip), vehicle: Klucel (hydroxypropylcellulose) (HPC)) was 95 % of control.
In the case of `CC1(O)CCCCC1c1ccccc1` (stereo not given), the T/C (dose: 100.0 mg/kg/injection, schedule: Q04DX003 (ip), vehicle: other) is reported as 104 % of control, the T/C (dose: 200.0 mg/kg/injection, schedule: Q04DX003 (ip), vehicle: other) is reported as 95 % of control and the T/C (dose: 400.0 mg/kg/injection, schedule: Q04DX003 (ip), vehicle: other) is reported as 93 % of control.
With `CCO/C=C/c1ccccc1` the T/C (dose: 100.0 mg/kg/injection, schedule: Q01DX009 (ip), vehicle: saline with Tween-80) was 101 % of control, the T/C [1] was 93 % of control and the T/C (dose: 200.0 mg/kg/injection, schedule: Q01DX009 (ip), vehicle: saline with Tween-80) was 96 % of control. The T/C (dose: 200.0 mg/kg/injection, schedule: Q04DX003 (ip), vehicle: saline with Tween-80) was 98 % of control and the T/C (dose: 400.0 mg/kg/injection, schedule: Q01DX009 (ip), vehicle: saline with Tween-80) was 90 % of control.
For `CC(=O)OC1C2OC3C=C(C)CCC3(CO)C(C)(C1OC(C)=O)C21CO1` (stereo not given), the T/C (dose: 0.8 mg/kg/injection, schedule: Q01DX009 (ip), vehicle: other) was 107 % of control, the T/C (dose: 1.6 mg/kg/injection, schedule: Q01DX009 (ip), vehicle: other) was 111 % of control and the T/C (dose: 6.4 mg/kg/injection, schedule: Q01DX009 (ip), vehicle: other) was 95 % of control.
With `Nc1ncnc(Nc2ccc([N+](=O)[O-])cc2)c1[N+](=O)[O-]` the T/C [2] was 97 % of control, the T/C [3] was 92 % of control and the T/C [4] was 96 % of control.
`COc1ccc2c(c1)C/C(=N\O)C2=O` was tested, and the T/C [1] was 102 % of control.
With `CN(C)c1ccccc1C(=O)NNC(=S)Nc1ccccc1` the T/C [2] was 103 % of control, the T/C (dose: 100.0 mg/kg/injection, schedule: Q04DX003 (ip), vehicle: Klucel (hydroxypropylcellulose) (HPC)) was 96 % of control and the T/C [3] was 96 % of control. For the same compound, the T/C (dose: 200.0 mg/kg/injection, schedule: Q04DX003 (ip), vehicle: Klucel (hydroxypropylcellulose) (HPC)) was 93 % of control, the T/C [4] was 93 % of control and the T/C (dose: 400.0 mg/kg/injection, schedule: Q04DX003 (ip), vehicle: Klucel (hydroxypropylcellulose) (HPC)) was 94 % of control.
For `CCCCCCNP(=O)(OCC)OCC`, the T/C (dose: 50.0 mg/kg/injection, schedule: Q01DX001 (ip), vehicle: carboxymethylcellulose (CMC)) was 95 % of control, the T/C [5] was 93 % of control and the T/C [6] was 101 % of control.
`Cc1cccc(NC(=O)CCCCCCCCC(=O)Nc2cccc(C)c2C)c1C` was tested, and the T/C [2] was 92 % of control, the T/C [3] was 102 % of control and the T/C [4] was 98 % of control.
For `NC(CSC(c1ccccc1)(c1ccccc1)c1ccc(F)cc1)C(=O)O` (stereo not given), the T/C (dose: 5.5 mg/kg/injection, schedule: Q01DX009 (ip), vehicle: saline) was 117 % of control, the T/C (dose: 8.2 mg/kg/injection, schedule: Q01DX009 (ip), vehicle: saline) was 117 % of control and the T/C (dose: 50.0 mg/kg/injection, schedule: Q01DX009 (ip), vehicle: saline) was 161 % of control. The T/C (dose: 100.0 mg/kg/injection, schedule: Q01DX009 (ip), vehicle: other) was 100 % of control.
`CC(=O)c1ccc(O)cc1` was tested, and the T/C (dose: 100.0 mg/kg/injection, schedule: Q04DX002 (ip), vehicle: Klucel (hydroxypropylcellulose) (HPC)) was 114 % of control, the T/C (dose: 200.0 mg/kg/injection, schedule: Q04DX002 (ip), vehicle: Klucel (hydroxypropylcellulose) (HPC)) was 96 % of control and the T/C (dose: 400.0 mg/kg/injection, schedule: Q04DX002 (ip), vehicle: Klucel (hydroxypropylcellulose) (HPC)) was 96 % of control.
In the case of `Nc1ccccc1SC1CC(=O)N(c2ccc(Oc3ccc(Cl)cc3)cc2)C1=O` (stereo not given), the T/C (dose: 75.0 mg/kg/injection, schedule: Q01DX009 (ip), vehicle: Klucel (hydroxypropylcellulose) (HPC)) is reported as 87 % of control, the T/C (dose: 150.0 mg/kg/injection, schedule: Q01DX009 (ip), vehicle: Klucel (hydroxypropylcellulose) (HPC)) is reported as 98 % of control and the T/C (dose: 300.0 mg/kg/injection, schedule: Q01DX009 (ip), vehicle: Klucel (hydroxypropylcellulose) (HPC)) is reported as 92 % of control.
In the case of `O=[N+]([O-])c1ccc(Oc2c(Cl)cc(Cl)cc2Cl)c([N+](=O)[O-])c1`, the T/C (dose: 222.0 mg/kg/injection, schedule: Q01DX Z (ip), vehicle: methylcellulose (MC)) is reported as 103 % of control, the T/C (dose: 333.0 mg/kg/injection, schedule: Q01DX Z (ip), vehicle: methylcellulose (MC)) is reported as 105 % of control and the T/C (dose: 500.0 mg/kg/injection, schedule: Q01DX Z (ip), vehicle: methylcellulose (MC)) is reported as 101 % of control.
With `Nc1ncnc2c1ncn2C1OC(CO)C(S)C1O` (stereo not given) the T/C [5] was 105 % of control and the T/C [6] was 92 % of control.
